Test [1] has as its target T1, Retinaldehyde dehydrogenase 3 (Homo sapiens) (UniProt P47895).
T1 sequence (whole entry): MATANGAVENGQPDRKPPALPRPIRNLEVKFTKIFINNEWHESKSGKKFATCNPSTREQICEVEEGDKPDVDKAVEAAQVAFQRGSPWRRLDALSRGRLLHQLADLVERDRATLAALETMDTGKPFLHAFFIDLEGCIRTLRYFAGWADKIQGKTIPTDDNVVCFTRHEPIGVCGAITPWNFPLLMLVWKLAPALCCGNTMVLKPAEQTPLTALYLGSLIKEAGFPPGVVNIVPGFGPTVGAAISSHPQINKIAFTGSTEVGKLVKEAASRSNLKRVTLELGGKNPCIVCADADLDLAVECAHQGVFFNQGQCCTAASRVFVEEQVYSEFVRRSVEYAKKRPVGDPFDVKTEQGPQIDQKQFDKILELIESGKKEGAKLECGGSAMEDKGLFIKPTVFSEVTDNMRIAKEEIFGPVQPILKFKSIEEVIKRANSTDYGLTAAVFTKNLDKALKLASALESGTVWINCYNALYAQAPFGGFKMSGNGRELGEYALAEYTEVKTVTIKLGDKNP
As to the kind of experiment: Activation of recombinant human ALDH1A3 using propionaldehyde as substrate at 20 uM preincubated for 2 mins with NAD+ followed by substrate addition by UV-Vis spectrophotometric analysis.

Test [2] deals with T2, Aldehyde dehydrogenase, mitochondrial (Homo sapiens) (UniProt P05091).
T2 sequence (whole entry): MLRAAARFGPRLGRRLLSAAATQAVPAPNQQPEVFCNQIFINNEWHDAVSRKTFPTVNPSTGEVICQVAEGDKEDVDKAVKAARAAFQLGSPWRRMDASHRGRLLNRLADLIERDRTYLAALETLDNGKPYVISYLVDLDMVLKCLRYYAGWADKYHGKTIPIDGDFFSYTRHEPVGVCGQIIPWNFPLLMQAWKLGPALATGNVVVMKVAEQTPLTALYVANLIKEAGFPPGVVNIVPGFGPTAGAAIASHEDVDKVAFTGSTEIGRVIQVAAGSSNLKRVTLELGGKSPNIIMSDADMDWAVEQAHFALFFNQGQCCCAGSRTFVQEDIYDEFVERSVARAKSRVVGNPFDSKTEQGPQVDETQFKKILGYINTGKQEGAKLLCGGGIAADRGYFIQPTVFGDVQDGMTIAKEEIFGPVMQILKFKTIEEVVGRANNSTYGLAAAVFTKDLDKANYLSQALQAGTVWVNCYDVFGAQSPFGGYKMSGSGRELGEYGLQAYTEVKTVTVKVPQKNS
As to the kind of experiment: Activation of recombinant human ALDH2 using propionaldehyde as substrate at 20 uM preincubated for 2 mins with NAD+ followed by substrate addition by UV-Vis spectrophotometric analysis.

Test [3] has as its target T3, Aldehyde dehydrogenase, dimeric NADP-preferring (Homo sapiens) (UniProt P30838).
T3 sequence (whole entry): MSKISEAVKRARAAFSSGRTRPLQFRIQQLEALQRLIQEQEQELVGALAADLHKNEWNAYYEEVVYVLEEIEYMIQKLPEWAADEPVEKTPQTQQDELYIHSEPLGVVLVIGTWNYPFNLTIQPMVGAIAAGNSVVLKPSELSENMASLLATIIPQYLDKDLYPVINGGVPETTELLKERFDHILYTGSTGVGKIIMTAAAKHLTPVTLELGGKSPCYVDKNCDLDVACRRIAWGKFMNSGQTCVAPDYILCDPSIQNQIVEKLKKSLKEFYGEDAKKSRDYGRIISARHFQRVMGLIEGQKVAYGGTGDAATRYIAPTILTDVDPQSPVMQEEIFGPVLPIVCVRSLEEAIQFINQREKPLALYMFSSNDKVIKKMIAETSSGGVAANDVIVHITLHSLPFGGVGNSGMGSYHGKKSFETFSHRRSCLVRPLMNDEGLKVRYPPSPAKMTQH
As to the kind of experiment: Activation of recombinant human ALDH3A1 using benzaldehyde as substrate at 20 uM preincubated for 2 mins with NAD+ followed by substrate addition by UV-Vis spectrophotometric analysis.

Test [4] has as its target T4, Retinaldehyde dehydrogenase 3 (Homo sapiens, UniProt P47895).
T4 sequence (P47895 whole entry): T1 sequence (whole entry)
The test can be described thus: Inhibition of recombinant human ALDH1A3 using propionaldehyde as substrate preincubated for 2 mins with NAD+ followed by substrate addition by UV-Vis spectrophotometric analysis.

Test [5] concerns the target T5, Aldehyde dehydrogenase, mitochondrial (Homo sapiens, UniProt P05091).
T5 sequence (P05091 whole entry): T2 sequence (whole entry)
As to the kind of experiment: Inhibition of recombinant human ALDH2 using propionaldehyde as substrate preincubated for 2 mins with NAD+ followed by substrate addition by UV-Vis spectrophotometric analysis.

The target of test [6] is T3, Aldehyde dehydrogenase, dimeric NADP-preferring (Homo sapiens). As to the kind of experiment: Inhibition of recombinant human ALDH3A1 using benzaldehyde as substrate at 100 uM preincubated for 2 mins with NAD+ followed by substrate addition by UV-Vis spectrophotometric analysis.
The target of test [7] is T6, Retinal dehydrogenase 2 (Homo sapiens) (UniProt O94788).
T6 sequence (whole entry): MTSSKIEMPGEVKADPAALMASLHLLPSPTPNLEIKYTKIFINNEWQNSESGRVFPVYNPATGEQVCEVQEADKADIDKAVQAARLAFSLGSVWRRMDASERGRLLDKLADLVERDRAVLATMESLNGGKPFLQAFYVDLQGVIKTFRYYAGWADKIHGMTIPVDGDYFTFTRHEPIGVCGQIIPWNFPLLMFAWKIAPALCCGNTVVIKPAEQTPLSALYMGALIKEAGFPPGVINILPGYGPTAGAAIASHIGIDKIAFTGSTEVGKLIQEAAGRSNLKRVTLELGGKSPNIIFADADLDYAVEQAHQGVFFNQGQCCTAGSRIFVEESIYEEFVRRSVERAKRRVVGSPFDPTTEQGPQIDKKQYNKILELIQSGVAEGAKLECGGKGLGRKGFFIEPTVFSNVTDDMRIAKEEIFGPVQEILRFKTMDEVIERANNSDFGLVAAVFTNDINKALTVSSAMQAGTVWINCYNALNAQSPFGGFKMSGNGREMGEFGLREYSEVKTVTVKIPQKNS
The test can be described thus: Activation of recombinant human ALDH1A2 using propionaldehyde as substrate at 20 uM preincubated for 2 mins with NAD+ followed by substrate addition by UV-Vis spectrophotometric analysis.

In test [8] the target is T6, Retinal dehydrogenase 2 (Homo sapiens). As to the kind of experiment: Activation of recombinant human ALDH1A2 using propionaldehyde as substrate at 100 uM preincubated for 2 mins with NAD+ followed by substrate addition by UV-Vis spectrophotometric analysis.
Test [9] addresses T1, Retinaldehyde dehydrogenase 3 (Homo sapiens). The test can be described thus: Activation of recombinant human ALDH1A3 using propionaldehyde as substrate at 100 uM preincubated for 2 mins with NAD+ followed by substrate addition by UV-Vis spectrophotometric analysis.
Test [10] addresses T3, Aldehyde dehydrogenase, dimeric NADP-preferring (Homo sapiens). As to the kind of experiment: Activation of recombinant human ALDH3A1 using benzaldehyde as substrate at 100 uM preincubated for 2 mins with NAD+ followed by substrate addition by UV-Vis spectrophotometric analysis.
Test [11] concerns the target T7, Aldehyde dehydrogenase 1A1 (Homo sapiens) (UniProt P00352).
T7 sequence (whole entry): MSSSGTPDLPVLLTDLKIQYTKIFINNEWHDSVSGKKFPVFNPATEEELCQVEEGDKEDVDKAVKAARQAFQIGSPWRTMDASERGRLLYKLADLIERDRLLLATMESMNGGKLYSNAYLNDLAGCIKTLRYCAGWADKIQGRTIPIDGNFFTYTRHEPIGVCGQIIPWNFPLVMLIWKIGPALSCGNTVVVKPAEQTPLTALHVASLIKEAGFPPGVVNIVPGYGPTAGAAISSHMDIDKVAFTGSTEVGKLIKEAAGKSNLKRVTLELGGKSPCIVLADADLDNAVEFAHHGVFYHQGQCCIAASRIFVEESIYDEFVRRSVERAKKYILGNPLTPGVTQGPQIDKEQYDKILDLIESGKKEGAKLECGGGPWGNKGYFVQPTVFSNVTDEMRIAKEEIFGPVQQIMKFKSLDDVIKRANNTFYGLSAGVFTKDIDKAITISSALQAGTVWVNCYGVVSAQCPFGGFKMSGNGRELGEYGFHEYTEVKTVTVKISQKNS
As to the kind of experiment: Effect on recombinant human ALDH1A1 using propionaldehyde as substrate up to 250 uM preincubated for 2 mins with NAD+ followed by substrate addition by UV-Vis spectrophotometric analysis.

The target of test [12] is T1, Retinaldehyde dehydrogenase 3 (Homo sapiens). The test can be described thus: Inhibition of recombinant human ALDH1A3 using propionaldehyde as substrate at 100 uM preincubated for 2 mins with NAD+ followed by substrate addition by UV-Vis spectrophotometric analysis.
The target of test [13] is T6, Retinal dehydrogenase 2 (Homo sapiens). As to the kind of experiment: Inhibition of recombinant human ALDH1A2 using propionaldehyde as substrate at 100 uM preincubated for 2 mins with NAD+ followed by substrate addition by UV-Vis spectrophotometric analysis.
The target of test [14] is T8, Aldehyde dehydrogenase X, mitochondrial (Homo sapiens) (UniProt P30837).
T8 sequence (whole entry): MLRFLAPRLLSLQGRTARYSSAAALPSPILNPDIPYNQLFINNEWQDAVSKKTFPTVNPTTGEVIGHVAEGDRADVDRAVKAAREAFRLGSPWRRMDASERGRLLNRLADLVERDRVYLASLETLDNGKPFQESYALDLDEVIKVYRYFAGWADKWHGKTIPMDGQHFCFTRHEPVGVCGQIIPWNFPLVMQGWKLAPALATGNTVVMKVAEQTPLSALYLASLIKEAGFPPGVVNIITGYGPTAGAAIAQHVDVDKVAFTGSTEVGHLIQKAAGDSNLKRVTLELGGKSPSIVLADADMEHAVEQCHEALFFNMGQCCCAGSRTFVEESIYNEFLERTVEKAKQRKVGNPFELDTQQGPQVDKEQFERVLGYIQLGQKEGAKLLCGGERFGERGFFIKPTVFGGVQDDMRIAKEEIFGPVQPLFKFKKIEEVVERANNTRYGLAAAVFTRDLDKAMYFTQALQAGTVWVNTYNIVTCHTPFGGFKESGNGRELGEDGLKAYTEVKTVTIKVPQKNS
As to the kind of experiment: Inhibition of recombinant human ALDH1B1 using propionaldehyde as substrate at 100 uM preincubated for 2 mins with NAD+ followed by substrate addition by UV-Vis spectrophotometric analysis.

Test [15] addresses T7, Aldehyde dehydrogenase 1A1 (Homo sapiens). As to the kind of experiment: Inhibition of recombinant human ALDH1A1 using propionaldehyde as substrate at 100 uM preincubated for 2 mins with NAD+ followed by substrate addition by UV-Vis spectrophotometric analysis relative to control.
For test [16], the target named is T2, Aldehyde dehydrogenase, mitochondrial (Homo sapiens). As to the kind of experiment: Inhibition of recombinant human ALDH2 using propionaldehyde as substrate at 100 uM preincubated for 2 mins with NAD+ followed by substrate addition by UV-Vis spectrophotometric analysis.

The source made the active and inactive calls. The rule behind the calls is not given here.

Usually IC50 stands for the concentration that gives 50% inhibition. Take `CC(C)CCn1c(CN2CCC(C)CC2)nc2c1c(=O)n(C)c(=O)n2C`: the Activity in test [1], in test [2] and in test [3] was less than 10% each time. In addition, the IC50 in test [4] and in test [5] was greater than 100 µM throughout. For the same molecule, the inhibition entry in [6] is “inactive”.

As for `Cc1cccc(Cn2c(CN3CCN(C(=O)c4ccco4)CC3)nc3c2c(=O)n(C)c(=O)n3C)c1`, the Activity in [7], in test [1] and in test [3] was less than 10% in each case. Besides, the outcome in test [8] and in test [9] was Active. In addition, the inhibition entry in test [6] was “inactive”.

For `Cc1ccc(Cn2c(CN3CCN(c4ccccc4)CC3)nc3c2c(=O)n(C)c(=O)n3C)cc1`, the Activity in test [1] and in test [3] was less than 10% in each case. Also, the outcome in [9] and in [10] was Active.

`Cn1c(=O)c2c(ncn2C)n(C)c1=O`: the result in test [11] was inactive. In addition, the inhibition result in [12], in test [13], in test [14], in [15], in test [16] and in test [6] was “inactive” throughout.

In the case of `CC(C)CCn1c(CN2CCC(C(N)=O)CC2)nc2c1c(=O)n(C)c(=O)n2C`, the Activity in test [1] and in test [3] was less than 10% each time. In addition, the result in test [9] and in test [10] was Active.

Take `CCC1CCCCN1Cc1nc2c(c(=O)n(C)c(=O)n2C)n1Cc1cccc(C)c1` (centres undefined): the Activity in test [1] and in [3] was less than 10% each time. Moreover, in [9], the outcome was Active. In test [6], the inhibition result is “inactive”.

For the molecule `Cn1c(=O)c2[nH]cnc2n(C)c1=O`, the inhibition entry in test [12], in [14], in [16] and in [6] was “inactive” in each case.

In the case of `CCN1CCN(Cc2nc3c(c(=O)n(C)c(=O)n3C)n2CCC(C)C)CC1`, the Activity in [1] and in [3] was less than 10% throughout. For the same molecule, the inhibition result in [12] and in [6] was “inactive” throughout.

For the origin of these results see ChEMBL document CHEMBL3414499, “Characterization of two distinct structural classes of selective aldehyde dehydrogenase 1A1 inhibitors” (J Med Chem, 2015).
